From EPA's ToxRefDB 2

Columns and labels:
rat [1] = details: Multigenerational reproductive toxicity study, sprague dawley, Oral, Feed, dose end: 2 generation
rat [2] = details: Combined chronic toxicity/carcinogenicity, sprague dawley, Oral, Feed, dose end: 24 month, group: systemic
dog [3] = details: Chronic toxicity, beagle, Oral, Capsule, dose end: 12 month, group: systemic
rat [4] = details: Subchronic oral toxicity in rodents, sprague dawley, Feed, dose end: 90 day
rat [5] = details: Prenatal developmental toxicity study, sprague dawley, Oral, Gavage/Intubation, dose end: 15 GD
rat [6] = details: Developmental neurotoxicity study; sprague dawley; Injection; Intraperitoneal; dose end: 112 PND; group: cannot be grouped; developmental / developmental malformation / bone / kinked + developmental / offspring survival late / [other] / [other] + reproductive / …
dog [7] = details: Chronic toxicity, beagle, Oral, Capsule, dose end: 52 week, group: systemic
mouse [8] = details: Carcinogenicity, cd1, Oral, Feed, dose end: 104 week, group: systemic
rat [9] = details: Prenatal developmental toxicity study, sprague dawley, Oral, Gavage/Intubation, dose end: 15 GD; remark: listed apart in the source
mouse [10] = details: Carcinogenicity; cd1; Oral; Feed; dose end: 104 week; group: systemic; systemic / organ weight / liver / relative to body weight + systemic / pathology gross / liver / discolored + systemic / pathology …
dog [11] = details: Subchronic oral toxicity in nonrodent, beagle, Capsule, dose end: 90 day, group: systemic, systemic / clinical chemistry / alkaline phosphatase (alp/alk) / alkaline phosphatase (alp/alk) + systemic / organ weight / liver / relative…
rat [12] = details: Chronic toxicity, sprague dawley, Oral, Feed, dose end: 104 week, group: systemic
rat [13] = details: Multigenerational reproductive toxicity study, sprague dawley, Oral, Feed, dose end: 2 generation; remark: listed apart in the source
rat [14] = details: Subchronic oral toxicity in rodents, sprague dawley, Feed, dose end: 90 day, group: systemic, systemic / organ weight / liver / absolute + systemic / organ weight / liver / relative to body weight + systemic / pathology microscopic / …
rat [15] = details: Combined chronic toxicity/carcinogenicity, sprague dawley, Oral, Feed, dose end: 104 week, group: systemic
rabbit = details: Prenatal developmental toxicity study, new zealand white, Oral, Gavage/Intubation, dose end: 19 GD
rat [16] = details: Prenatal developmental toxicity study, sprague dawley, Oral, Gavage/Intubation, dose end: 15 GD; remark: listed apart in the source
[17] = group: offspring, developmental / offspring survival late / viability index / viability index + systemic / in life observation / body weight / offspring (pup…
[18] = group: parental, systemic / in life observation / body weight / body weight + systemic / in life observation / body weight / body weight gain + systemic / in…
[19] = group: reproductive, reproductive / offspring survival early / birth index / live birth index
[20] = systemic / pathology microscopic / kidney / nephropathy + systemic / hematology / hemoglobin (hgb) / hemoglobin (hgb) + systemic / …
[21] = systemic / clinical chemistry / alkaline phosphatase (alp/alk) / alkaline phosphatase (alp/alk) + systemic / organ weight / liver / absolute…
[22] = group: cholinesterase, cholinesterase / cholinesterase / cholinesterase / cholinesterase (che)
[23] = group: systemic, systemic / hematology / mean corpuscular (cell) volume (mcv) / mean corpuscular (cell) volume (mcv) + systemic / hematology / mean …
[24] = group: systemic, systemic / organ weight / thyroid gland / absolute
[25] = group: developmental, developmental / developmental malformation / heart / [other] + developmental / developmental malformation / heart / defect a-v septum
[26] = group: developmental, developmental / developmental malformation / heart / [other] + developmental / developmental malformation / heart / defect a-v septum + …
[27] = group: maternal, reproductive / reproductive performance / resorptions / resorptions + reproductive / offspring survival early / litter size / litter size + …
[28] = systemic / clinical chemistry / glucose / glucose
[29] = systemic / pathology microscopic / liver / pigmentation + systemic / pathology microscopic / liver / vacuolization
[30] = systemic / pathology microscopic / liver / pigmentation + systemic / pathology microscopic / liver / vacuolization + systemic / pathology …
[31] = group: developmental, developmental / developmental malformation / bone / incomplete ossification
[32] = group: maternal, systemic / in life observation / body weight / body weight + systemic / in life observation / clinical signs / ataxia + systemic / in life …
[33] = systemic / pathology microscopic / testes / atrophy
[34] = systemic / pathology microscopic / testes / atrophy + systemic / organ weight / epididymis / relative to body weight + systemic / organ …
[35] = group: offspring, systemic / in life observation / body weight / offspring (pup) weight gain + developmental / developmental landmark / eye opening / eye …
[36] = group: parental, systemic / pathology microscopic / liver / fatty change
[37] = group: parental, systemic / pathology microscopic / liver / fatty change + systemic / in life observation / body weight / body weight + systemic / in life …
[38] = group: reproductive, reproductive / offspring survival early / litter size / litter size
[39] = systemic / pathology microscopic / liver / dilatation + systemic / pathology microscopic / liver / inflammation + systemic / pathology …
[40] = group: developmental, developmental / developmental malformation / bone / absent + developmental / developmental malformation / bone / fused + developmental / …
[41] = group: maternal, systemic / in life observation / food consumption / food consumption + systemic / pathology microscopic / liver / apoptosis + systemic / …
[42] = group: developmental, developmental / developmental malformation / bone / delayed ossification + developmental / developmental malformation / bone / incomplete …
[43] = group: maternal, systemic / in life observation / body weight / body weight gain + systemic / in life observation / clinical signs / urogenital staining + …

Structure (SMILES): C#CCN1C(=O)COc2cc(F)c(N3C(=O)C4=C(CCCC4)C3=O)cc21 [Flumioxazin]
- LEL (rat [1]; [17]): 12.7 mg/kg/day
- NEL (rat [1]; [17]): 6.3 mg/kg/day
- LOAEL (rat [1]; group: offspring, systemic / in life observation / body weight / offspring (pup) weight): 15.1 mg/kg/day
- NOAEL (rat [1]; group: offspring, systemic / in life observation / body weight / offspring (pup) weight + developmental / offspring survival late / lactation index / …): 7.6 mg/kg/day
- LOAEL (rat [1]; group: parental, systemic / in life observation / body weight / body weight): 12.7 mg/kg/day
- NEL (rat [1]; [18]): 6.3 mg/kg/day
- NOAEL (rat [1]; [18]): 6.3 mg/kg/day
- LEL (rat [1]; group: parental, systemic / in life observation / body weight / body weight + systemic / organ weight / epididymis / absolute + systemic / organ weight / …): 12.7 mg/kg/day
- LEL (rat [1]; [19]): 12.7 mg/kg/day
- LOAEL (rat [1]; [19]): 12.7 mg/kg/day
- NEL (rat [1]; [19]): 6.3 mg/kg/day
- NOAEL (rat [1]; [19]): 6.3 mg/kg/day
- LOAEL (rat [2]; systemic / pathology microscopic / kidney / nephropathy): 18 mg/kg/day
- LEL (rat [2]; systemic / pathology microscopic / kidney / nephropathy + systemic / hematology / hemoglobin (hgb) / hemoglobin (hgb) + systemic / pathology…): 18 mg/kg/day
- NEL (rat [2]; [20]): 1.8 mg/kg/day
- NOAEL (rat [2]; [20]): 1.8 mg/kg/day
- LOAEL (dog [3]; [21]): 1000 mg/kg/day
- NEL (dog [3]; [21]): 10 mg/kg/day
- NOAEL (dog [3]; [21]): 100 mg/kg/day
- LEL (dog [3]; systemic / organ weight / pituitary gland / absolute + systemic / organ weight / prostate / absolute + systemic / pathology microscopic / …): 100 mg/kg/day
- LEL (rat [4]; [22]): 218 mg/kg/day
- LOAEL (rat [4]; [22]): > 218 mg/kg/day
- NEL (rat [4]; [22]): 72.9 mg/kg/day
- NOAEL (rat [4]; [22]): ≥ 218 mg/kg/day
- LOAEL (rat [4]; [23]): 22.4 mg/kg/day
- NOAEL (rat [4]; [23]): 2.2 mg/kg/day
- LEL (rat [4]; [24]): 1.9 mg/kg/day
- NEL (rat [4]; [24]): < 1.9 mg/kg/day
- LEL (rat [5]; [25]): 10 mg/kg/day
- LOAEL (rat [5]; [25]): 10 mg/kg/day
- NEL (rat [5]; [26]): 3 mg/kg/day
- NOAEL (rat [5]; [26]): 3 mg/kg/day
- NEL (rat [5]; group: maternal, reproductive / reproductive performance / resorptions / resorptions): 10 mg/kg/day
- LEL (rat [5]; [27]): 30 mg/kg/day
- LOAEL (rat [5]; [27]): > 30 mg/kg/day
- NOAEL (rat [5]; [27]): ≥ 30 mg/kg/day

Structure (SMILES): O=c1[nH]c(=O)n([C@H]2C[C@H](O)[C@@H](CO)O2)cc1Br [5-Bromo-2'-deoxyuridine]
- LEL (rat [6]): 50 mg/kg/day
- LOAEL (rat [6]): > 100 mg/kg/day
- NEL (rat [6]): < 50 mg/kg/day
- NOAEL (rat [6]): ≥ 100 mg/kg/day

Structure (SMILES): O=[N+]([O-])c1cc(C(F)(F)F)c(Cl)c([N+](=O)[O-])c1Nc1ncc(C(F)(F)F)cc1Cl [Fluazinam]
- LEL (dog [7]; [28]): 1 mg/kg/day
- NEL (dog [7]; [28]): < 1 mg/kg/day
- LOAEL (dog [7]; systemic / in life observation / clinical signs / nasal dryness + systemic / pathology microscopic / stomach / hyperplasia): 10 mg/kg/day
- NOAEL (dog [7]; systemic / in life observation / clinical signs / nasal dryness + systemic / pathology microscopic / stomach / hyperplasia + systemic / …): 1 mg/kg/day
- LEL (mouse [8]; [29]): 10.7 mg/kg/day
- LOAEL (mouse [8]; [29]): 10.7 mg/kg/day
- NEL (mouse [8]; [30]): 1.12 mg/kg/day
- NOAEL (mouse [8]; [30]): 1.12 mg/kg/day
- LEL (rat [9]; [31]): 100 mg/kg/day
- LOAEL (rat [9]; [31]): > 1000 mg/kg/day
- NEL (rat [9]; [31]): 10 mg/kg/day
- NOAEL (rat [9]; [31]): ≥ 1000 mg/kg/day
- LEL (rat [9]; [32]): 1000 mg/kg/day
- LOAEL (rat [9]; [32]): > 1000 mg/kg/day
- NEL (rat [9]; [32]): 100 mg/kg/day
- NOAEL (rat [9]; [32]): ≥ 1000 mg/kg/day
- LEL (mouse [10]): 126 mg/kg/day
- LOAEL (mouse [10]): 126 mg/kg/day
- NEL (mouse [10]): < 126 mg/kg/day
- NOAEL (mouse [10]): < 126 mg/kg/day
- LEL (dog [11]): 100 mg/kg/day
- LOAEL (dog [11]): 100 mg/kg/day
- NEL (dog [11]): 10 mg/kg/day
- NOAEL (dog [11]): 10 mg/kg/day
- LOAEL (rat [12]; [33]): 3.9 mg/kg/day
- LEL (rat [12]; [34]): 3.9 mg/kg/day
- NEL (rat [12]; [34]): 1.9 mg/kg/day
- NOAEL (rat [12]; [34]): 1.9 mg/kg/day
- LOAEL (rat [13]; group: offspring, systemic / in life observation / body weight / offspring (pup) weight gain): 47.3 mg/kg/day
- LEL (rat [13]; [35]): 47.3 mg/kg/day
- NEL (rat [13]; [35]): 9.7 mg/kg/day
- NOAEL (rat [13]; [35]): 9.7 mg/kg/day
- LEL (rat [13]; [36]): 9.7 mg/kg/day
- LOAEL (rat [13]; [36]): 9.7 mg/kg/day
- NEL (rat [13]; [37]): 1.9 mg/kg/day
- NOAEL (rat [13]; [37]): 1.9 mg/kg/day
- LEL (rat [13]; [38]): 47.3 mg/kg/day
- LOAEL (rat [13]; [38]): 47.3 mg/kg/day
- NEL (rat [13]; [38]): 9.7 mg/kg/day
- NOAEL (rat [13]; [38]): 9.7 mg/kg/day
- LEL (rat [14]): 38 mg/kg/day
- LOAEL (rat [14]): 38 mg/kg/day
- NEL (rat [14]): 3.8 mg/kg/day
- NOAEL (rat [14]): 3.8 mg/kg/day
- LOAEL (rat [15]; [39]): 3.8 mg/kg/day
- NOAEL (rat [15]; [39]): 0.38 mg/kg/day
- LEL (rat [15]; [33]): 0.04 mg/kg/day
- NEL (rat [15]; [33]): < 0.04 mg/kg/day
- LEL (rabbit; [40]): 12 mg/kg/day
- LOAEL (rabbit; [40]): 12 mg/kg/day
- NEL (rabbit; [40]): 7 mg/kg/day
- NOAEL (rabbit; [40]): 7 mg/kg/day
- LEL (rabbit; group: maternal, reproductive / reproductive performance / aborted / aborted): 4 mg/kg/day
- LOAEL (rabbit; [41]): 7 mg/kg/day
- NEL (rabbit; [41]): 2 mg/kg/day
- NOAEL (rabbit; [41]): 4 mg/kg/day
- LOAEL (rat [16]; [42]): 250 mg/kg/day
- NEL (rat [16]; [42]): 10 mg/kg/day
- NOAEL (rat [16]; [42]): 50 mg/kg/day
- LEL (rat [16]; group: developmental, developmental / developmental malformation / bone / full supernumerary): 50 mg/kg/day
- LEL (rat [16]; [43]): 250 mg/kg/day
- LOAEL (rat [16]; [43]): 250 mg/kg/day
- NEL (rat [16]; [43]): 50 mg/kg/day
- NOAEL (rat [16]; [43]): 50 mg/kg/day
